In one series the test system is HepG2. As to the kind of experiment: Modified MTT cytotoxicity assay, HepG2. Type of series: cell-based, Human. The conditions noted are these: for IC50: MTT, 24 h incubation, three replicates, read-out: Cytotoxicity IC50 HepG2; for SI (selectivity index) HepG2: quotient of IC50 for normal (LO2) and malignant (HepG2) cells. As for the experimental part:
(§1) The HepG2, SMMC-7721, and LO2 cell lines were maintained at 37 °C, 5% humidified CO2, and 95% atmosphere. Dulbecco's Modified Eagle (DMEM) medium containing 10% foetal bovine serum (FBS) was used for culturing the HepG2 cell line; meanwhile, Roswell Park Memorial Institute (RPMI) 1640 medium containing 10% FBS was used for culturing other cell lines (SMMC-7721, LO2). The HepG2, SMMC-7721 and LO2 cells were seeded in a 96-well plate in 200 μL of medium per well at a density of approximately 8 × 10^3 cells/well and cultured for 24 h, followed by incubation in an incubator of indicated compounds with successive concentrations (10, 5, 2.5, 1.25, 0.625, 0.3125 μg/mL) for 24 h. In the control group, cells were only cultured with culture media. After the media were removed, 20 μL of MTT (5 mg/mL) was added, then cells were incubated for 4 h at 37 °C. […] GraphPad Prism 5 software was used to calculate their IC50 values. Every IC50 value was the average of three replicates. Doxorubicin (DOX) and curcumin were used as positive controls.
On the technique in general: Formazan colour is commonly taken as a measure of viable cells.

Another series relates to SMMC-7721. As to the kind of experiment: Modified MTT cytotoxicity assay, SMMC-7721. Type of series: cell-based, Human. The conditions noted are these: for IC50: MTT, 24 h incubation, three replicates; for SI (selectivity index) SMMC-7721: quotient of IC50 for normal (LO2) and malignant (SMMC-7721) cells. As for the experimental part:
as §1

Series [1] is described as follows: Modified MTT cytotoxicity assay, normal heptical cell line LO2. The conditions noted are these: human, LO2 cells (normal hepatic cell line), 24 h incubation. Format: cell-based, human. The protocol:
as §1

A further series concerns RAW264.7 cell. As to the kind of experiment: MTT toxicity pre-experiment on RAW264.7 macrophagocyte. The conditions noted are these: for viability at 5 µM: Mus musculus, RAW264.7, BAPs 5 μM, read-out: Survival rate RAW264.7 cell; for Survival rate RAW264.7 cell: BAPs 5 μM. Type of series: cell-based, mouse. The protocol: Lipopolysaccharide (LPS) is a key constituent of Gram-negative bacterial endotoxin, which is used to induce an inflammatory response in corresponding inflammatory cells. TNF-α and IL-6 are two kinds of representative pro-inflammatory factors, which produced by LPS-stimulated RAW264.7 macrophage. In our pre-experiments, the toxicity against RAW264.7 macrophagocyte for all title compounds was tested by the MTT assay, and the results were listed in Table 2. The survival rates were above 80% for all BAPs (4-30) at the concentration of 5.0 μM.

The next series deals with TNF-α. As to the kind of experiment: ELISA of TNF-α release in LPS-stimulated RAW264.7 cells. Format: cell-based, mouse. The conditions noted are these: RAW264.7, ELISA; for inhibition at 5 µM: Mus musculus, RAW264.7, BAPs (5 μM) + LPS (1 μg/mL), read-out: Inhibition rate TNF-α; for Inhibition rate TNF-α: BAPs (5 μM) + LPS (1 μg/mL). As for the experimental part:
(§2) We tested by inhibiting the secretion of TNF-α and IL-6 to better evaluated the anti-inflammatory effects of BAPs. […] Under the stimulation of LPS (1.0 μg/mL) with RAW264.7 cells, the release of TNF-α and IL-6 was detected. Besides, after treated with BAPs (5.0 μM) and LPS (1.0 μg/mL), the release of TNF-α and IL-6 was measured with an ELISA kit (eBioScience, San Diego, California), respectively. In general terms, pyrrolidine dithiocarbamate (PDTC, 30 μM) or BAP (5.0 μM) was used to pretreat cells for 2 h, respectively. Then, LPS (1.0 μg/mL) was added and cells were incubated for another 22 h. Finally, the culture media were centrifuged at 1000 rpm for 10 min, and the expression levels of TNF-α and IL-6 were determined by ELISA.
A general note: In an ELISA, binding on a coated surface is turned into a signal by an enzyme label.

The subject of the next series is IL-6. As to the kind of experiment: ELISA of IL-6 release in LPS-stimulated RAW264.7 cells. Format: cell-based, mouse. The conditions noted are these: RAW264.7, ELISA; for inhibition at 5 µM: Mus musculus, RAW264.7, BAPs (5 μM) + LPS (1 μg/mL), read-out: Inhibition rate IL-6; for Inhibition rate IL-6: BAPs (5 μM) + LPS (1 μg/mL). As for the experimental part:
as §2

The subject of another series is A549. The experiment in a line: Modified MTT cytotoxicity assay, A549. The conditions noted are these: for SI (selectivity index) A549: quotient of IC50 for normal (HHL-5) and malignant (A549) cells.
The subject of another series is A2780. The experiment in a line: Modified MTT cytotoxicity assay, A2780. The conditions noted are these: for SI (selectivity index) A2780: quotient of IC50 for normal (HHL-5) and malignant (A2780) cells.
Series [2] can be described thus: Modified MTT cytotoxicity assay, normal heptical cell line HHL-5. The conditions noted are these: human, HHL-5 cells (normal hepatic cell line).
For the next series, the system named is LO2. The experiment in a line: Modified MTT cytotoxicity assay, normal heptical cell line LO2. The conditions noted are these: 24 h incubation. Format: cell-based, human. As for the experimental part:
as §1

Another series concerns HHL-5. As to the kind of experiment: Modified MTT cytotoxicity assay, normal heptical cell line HHL-5. The conditions noted are these: read-out: Cytotoxicity IC50 HHL-5; MTT, normal heptical cell line.
The next series in a line: in vitro. The conditions noted are these: human.
Setting [3] is: Homo sapiens, A549, read-out: Cytotoxicity IC50 A549, MTT, non-small cell lung cancer cell line.
Setting [4] is: Homo sapiens, A2780, read-out: Cytotoxicity IC50 A2780, MTT, ovarian cancer cell line.
The mark [5] stands for this setting: read-out: Cytotoxicity IC50 A549, MTT, non-small cell lung cancer cell line.
Where [6] appears, read: read-out: Cytotoxicity IC50 A2780, MTT, ovarian cancer cell line.

Where two headings read alike, the source gives them in different places.

Experimental for A549: To further verify the anti-tumour activity, one human non-small cell lung cancer cell line (A549), one human ovarian cancer cell line (A2780), and one human normal heptical cell line (HHL-5) were screened by BAPs (4–30) using a modified MTT assay (Supporting Information). DOX and curcumin were selected as positive controls.
The optical density (OD) value of each well was measured on a
multi-well plate reader (TECAN, Mӓnnedorf, Switzerland ) at 570 nm.
Every IC 50 value was the average of three replicates.
Doxorubicin (DOX) and Curcumin were used as positive controls.

As to `O=C1/C(=C/c2cccc(C(F)(F)F)c2)CN(S(=O)(=O)c2ccc(Br)cc2)C/C1=C\c1cccc(C(F)(F)F)c1` [BAP 19], the melting point – broadly, the temperature of the solid-liquid transition – fell in the range of 135 to 137 °C. Further, the IC50 (in general, the concentration needed to halve the response being measured) in the series on HepG2 (Homo sapiens, HepG2, 24 h) is 6.5 ± 0.2 µM. For the same molecule, the “SI (selectivity index) HepG2” value in the series on HepG2 is recorded as 1.7. The molecule further returned an IC50 in the series on SMMC-7721 (Homo sapiens, SMMC-7721, 24 h) of 7.6 ± 0.4 µM. For the same molecule, the “SI (selectivity index) SMMC-7721” value in the series with SMMC-7721 came to 1.4. The molecule further had an IC50 at 24 h in [1] of 11 ± 0.2 µM. Further, the viability at 5 µM with RAW264.7 cell is 81.9 ± 0.6%. Further, the inhibition (commonly the share of the control response that was lost under treatment) at 5 µM in the series with TNF-α worked out at 49.2 ± 3.7%. Besides, the inhibition at 5 µM in the series with IL-6 is 56.3 ± 1.3%. Besides, in the series on A549 (setting [3]), the 50% inhibitory concentration (IC50) worked out at 0.12 ± 0.01 µM. In the series on A549, the “SI (selectivity index) A549” value was 113.3. Moreover, the concentration for half-maximal inhibition (IC50) in the series with A2780 (setting [4]) came out at 0.21 ± 0.03 µM. Besides, the “SI (selectivity index) A2780” value with A2780 worked out at 64.8. Also, the 50% inhibitory concentration (IC50) in series [2] is 13.6 ± 0.5 µM.

Take `O=C1/C(=C/c2ccc(C(F)(F)F)cc2)CN(S(=O)(=O)c2ccc([N+](=O)[O-])cc2)C/C1=C\c1ccc(C(F)(F)F)cc1` [BAP 24]: the IC50 with HepG2 came out at 1.2 ± 0.3 µM; in the series on SMMC-7721 it was 3.2 ± 0.3 µM; in the series on LO2, 14.4 ± 0.1 µM; in the series on A549 (setting [5]), 0.17 ± 0.01 µM; in the series on A2780 (setting [6]) it was 0.17 ± 0.02 µM; in the series on HHL-5, 7.5 ± 0.6 µM. In addition, in the series with HepG2, the “SI (selectivity index) HepG2” value is reported as 12.0. Further, the “SI (selectivity index) SMMC-7721” value in the series with SMMC-7721 turned out to be 4.5. The “Survival rate RAW264.7 cell” value in the series with RAW264.7 cell is reported as 89.0 ± 1.6%. Further, the “Inhibition rate TNF-α” value with TNF-α is listed as 65.0 ± 1.8%. Moreover, in the series on IL-6, the “Inhibition rate IL-6” value was determined as 57.3 ± 2.1%. The “SI (selectivity index) A549” value in the series on A549 was determined as 44.1. In addition, in the series on A2780, the “SI (selectivity index) A2780” value is given as 44.1.

For the molecule `O=C1/C(=C/c2ccc(C(F)(F)F)cc2)CN(S(=O)(=O)c2ccc(Cl)cc2)C/C1=C\c1ccc(C(F)(F)F)cc1` [BAP 27], the melting point was 220 to 222 °C. For the same molecule, the IC50 in the series on HepG2 (Homo sapiens, HepG2, 24 h) turned out to be 1.4 ± 0.2 µM. In addition, the “SI (selectivity index) HepG2” value in the series on HepG2 worked out at 11.3. The molecule also returned a half-maximal inhibitory concentration (IC50) with SMMC-7721 (Homo sapiens, SMMC-7721, 24 h) of 1.8 ± 0.2 µM. Besides, the “SI (selectivity index) SMMC-7721” value in the series with SMMC-7721 came to 8.8. Further, the IC50 at 24 h in series [1] was determined as 15.8 ± 0.4 µM. Besides, in the series on RAW264.7 cell, the viability at 5 µM turned out to be 86.4 ± 4.8%. Moreover, the inhibition at 5 µM in the series with TNF-α came to 69.9 ± 2.7%. In addition, the inhibition at 5 µM with IL-6 is 67.3 ± 2.2%. The IC50 in the series with A549 (setting [3]) amounted to 0.14 ± 0.04 µM. Also, the “SI (selectivity index) A549” value with A549 amounted to 65.0. Further, the IC50 with A2780 (setting [4]) came to 0.197 ± 0.05 µM. Besides, the “SI (selectivity index) A2780” value in the series with A2780 is given as 46.2. The IC50 in series [2] was determined as 9.1 ± 0.2 µM.

For `CC(=O)Nc1ccc(S(=O)(=O)N2C/C(=C\c3ccc(C(F)(F)F)cc3)C(=O)/C(=C/c3ccc(C(F)(F)F)cc3)C2)cc1` [BAP 30], the IC50 in the series on HepG2 was 1.8 ± 0.2 µM; in the series with SMMC-7721, 3.1 ± 0.2 µM; with LO2 it was 14.2 ± 1.1 µM; in the series with A549 (setting [5]), 0.098 ± 0.01 µM; in the series with A2780 (setting [6]), 0.13 ± 0.02 µM; in the series with HHL-5, 2.1 ± 0.1 µM. Moreover, the “SI (selectivity index) HepG2” value in the series on HepG2 is 7.9. Besides, the “SI (selectivity index) SMMC-7721” value with SMMC-7721 turned out to be 4.6. For the same molecule, the “Survival rate RAW264.7 cell” value with RAW264.7 cell worked out at 92.0 ± 1.3%. Moreover, the “Inhibition rate TNF-α” value in the series with TNF-α came to 68.3 ± 3.1%. For the same molecule, the “Inhibition rate IL-6” value in the series with IL-6 worked out at 70.1 ± 1.2%. Also, the “SI (selectivity index) A549” value in the series with A549 stood at 21.4. Besides, the “SI (selectivity index) A2780” value with A2780 was determined as 16.2.

`COc1cccc2c1C(=O)c1c(O)c3c(c(O)c1C2=O)C[C@@](O)(C(=O)CO)C[C@@H]3O[C@H]1C[C@H](N)[C@H](O)[C@H](C)O1` [DOX, Doxorubicin, reference compound]: the IC50 is ~1.3 µM with HepG2 (Homo sapiens, HepG2, 24 h); ~1.7 µM in the series on SMMC-7721 (Homo sapiens, SMMC-7721, 24 h); 12.2 ± 0.4 µM in the series “in vitro”; 0.29 ± 0.07 µM in the series with A549 (setting [3]); 0.19 ± 0.01 µM with A2780 (setting [4]). For the same molecule, the “SI (selectivity index) HepG2” value in the series with HepG2 was 6.8. Besides, the “SI (selectivity index) SMMC-7721” value in the series with SMMC-7721 stood at 5.2. In [1], this molecule had an IC50 at 24 h of 8.9 ± 0.5 µM. In the series on A549 (A549 and A2780 vs HHL-5), the “SI (selectivity), bound stated for A549 and A2780 together” value is listed as > 40. For the same molecule, in the series on A549, the “SI (selectivity index) A549” value was 42.1. The “SI (selectivity index) A2780” value in the series with A2780 is on record as 64.2.
